Key:
Aurora-A (h) = Aurora-A (h) (Homo sapiens (Human), UniProt O14965); experiment: Aurora-A (h) kinase assay; assay type: biochemical
Method: Kinase assays can be performed by measurement of incorporation of γ-^33P ATP into immobilized myelin basic protein (MBP). […] Plates are washed 3× with 100 μL TBS. Kinase reactions are carried out in a total volume of 34 μL in kinase buffer (5 mM Hepes pH 7.6, 15 mM NaCl, 0.01% bovine gamma globulin (Sigma #I-5506), 10 mM MgCl2, 1 mM DTT, 0.02% TritonX-100). Compound dilutions are performed in DMSO and added to assay wells to a final DMSO concentration of 1%. Each data point is measured in duplicate, and at least two duplicate assays are performed for each individual compound determination. Enzyme is added to final concentrations of 10 nM or 20 nM, for example.
The above assay procedure can be used to determine the IC50 for inhibition and/or the inhibition constant, Ki. The IC50 is defined as the concentration of compound required to reduce the enzyme activity by 50% under the condition of the assay.
(§1) The kinase assays described herein were performed at Millipore UK Ltd, Dundee Technology Park, Dundee DD2 1SW, UK.

JAK1 (h) = JAK1 (h) (Homo sapiens (Human), UniProt P23458); experiment: JAK1 (h) kinase assay; assay type: biochemical
Method: (§2) Kinase assays can be performed by measurement of incorporation of γ-^33P ATP into immobilized myelin basic protein (MBP). High binding white 384 well plates (Greiner) are coated with MBP (Sigma #M-1891) by incubation of 60 μL/well of 20 μg/mL MBP in Tris-buffered saline (TBS; 50 mM Tris pH 8.0, 138 mM NaCl, 2.7 mM KCl) for 24 h at 4° C. Plates are washed 3× with 100 μL TBS. Kinase reactions are carried out in a total volume of 34 μL in kinase buffer (5 mM Hepes pH 7.6, 15 mM NaCl, 0.01% bovine gamma globulin (Sigma #I-5506), 10 mM MgCl2, 1 mM DTT, 0.02% TritonX-100). Compound dilutions are performed in DMSO and added to assay wells to a final DMSO concentration of 1%. Each data point is measured in duplicate, and at least two duplicate assays are performed for each individual compound determination. Enzyme is added to final concentrations of 10 nM or 20 nM, for example. A mixture of unlabeled ATP and γ-^33P ATP is added to start the reaction (2×10^6 cpm of γ-^33P ATP per well (3000 Ci/mmole) and 10 μM unlabeled ATP, typically. The reactions are carried out for 1 h at room temperature with shaking Plates are washed 7× with TBS, followed by the addition of 50 μL/well scintillation fluid (Wallac). Plates are read using a Wallac Trilux counter. This is only one format of such assays; various other formats are possible, as known to one skilled in the art.
The above assay procedure can be used to determine the IC50 for inhibition and/or the inhibition constant, Ki. The IC50 is defined as the concentration of compound required to reduce the enzyme activity by 50% under the condition of the assay. The IC50 value is estimated by preparing a 10 point curve using a ½ log dilution series (for example, a typical curve may be prepared using the following compound concentrations: 3 μM, 1 μM, 0.3 μM, 0.1 μM, 0.03 μM, 0.01 μM, 0.003 μM, 0.001 μM, 0.0003 μM, and 0 μM).
as §1

[1] = Compound stability in rat liver microsomes; assay type: in vitro ADME; settings: pH 7.4; for half-life at 5 μM: rat liver microsomes 0.5 mg protein/mL, compound 5 μM, NADPH 1.0 mM, 37° C., read-out: Rat T1/2; for CLint scaled at 5 μM: rat liver microsomes, in vivo CLint extrapolated
Method: (§3) Human or rat liver microsomes incubations were conducted in duplicate in polypropylene tubes. The typical incubation mixtures consisted of human or rat liver microsomes (0.5 mg protein/mL), compounds of interest (5 μM) and NADPH (1.0 mM) in a total volume of 200 μL potassium phosphate buffer (PBS, 100 mM, pH 7.4). Compounds were dissolved in DMSO and diluted with PBS such that the final concentration of DMSO was 0.05%. The enzymatic reactions were commenced with the addition of […] after a 3-min preincubation and incubated in a water bath open to the air at 37° C. Reactions were terminated at various time points (0, 5, 10, 15, 30, 60 min) by adding equal volume of ice-cold acetonitrile. The samples were stored at […] until LC/MS/MS assays.
(§4) The concentrations of compounds in the incubation mixtures of human or rat liver microsomes were determined by a LC/MS/MS method. The ranges of the linearity in the concentration range were determined for each tested compounds.
(§5) A parallel incubation was performed using denatured microsomes as the negative control, and reactions were terminated at various time points (0, 15, 60 min) after incubation at 37° C.
(§6) Dextromethorphan (70 μM) was selected as the positive control, and reactions were terminated at various time points (0, 5, 10, 15, 30, 60 min) after incubation at 37° C. Both positive and negative control samples were included in each assay to ensure the integrity of the microsomal incubation system.
(§7) The concentrations of compounds in human or rat liver microsome incubations were plotted as a percentage of the relevant zero time point control for each reaction. The in vivo CLint were extrapolated (ref.: Naritomi, Y.; Terashita, S.; Kimura, S.; Suzuki, A.; Kagayama, A.; and Sugiyama, Y.; Prediction of human hepatic clearance from in vivo animal experiments and in vitro metabolic studies with liver microsomes from animals and humans. Drug Metab. Dispos., 2001, 29: 1316-1324).

[2] = Pharmacokinetics after intravenous and oral administration in rats; assay type: in vivo, rat; settings: iv dosing, 1 mg/kg; for AUC(0-t) / half-life / Vd: rat, plasma; for Vd: read-out: Vss
Method: The compounds disclosed herein are assessed in pharmacokinetic studies in mice, rats, dogs or monkeys. The compounds are administered as a water solution, 2% HPMC+1% TWEEN®80 in water solution, 5% DMSO+5% solutol in saline, 4% MC suspension or capsule. For the intravenous administration, the animals are generally given at 1 or 2 mg/kg dose. For the oral (p.o.) dosing, mice and rats are generally given 5 or 10 mg/kg dose, and dogs and monkeys are generally given 10 mg/kg dose. The blood samples (0.3 mL) are drawn at 0.25, 0.5, 1.0, 2.0, 3.0, 4.0, 6.0, 8.0, 12 and 24 h time points or 0.083, 0.25, 0.5, 1.0, 2.0, 4.0, 6.0, 8.0 and 24 h time points and centrifuged at 3,000 or 4000 rpm for 2 to 10 min. The plasma solutions are collected, and stored at −20° C. or −70° C. until analyzed by LC/MS/MS as described above.

[3] = Compound stability in human liver microsomes; assay type: in vitro ADME; settings: for half-life at 5 μM / CLint scaled at 5 μM: pH 7.4; for half-life at 5 μM: read-out: Human T1/2; for CLint scaled at 5 μM: human liver microsomes, in vivo CLint extrapolated
Method: as §3, §4, §5, §6, §7

Aurora-B (h) = Aurora-B (h) (Homo sapiens (Human), UniProt Q96GD4); experiment: Aurora-B (h) kinase assay; assay type: biochemical
Method: as §2, with “art. […]” for “art.”

FLT3 (h) = FLT3 (h) (Homo sapiens (Human), UniProt P36888); experiment: FLT3 (h) kinase assay; assay type: biochemical
Method: as §2, with “art. […]” for “art.”

JAK2 (h) = JAK2 (h) (Homo sapiens (Human), UniProt O60674); experiment: JAK2 (h) kinase assay; assay type: biochemical
Method: as §2, with “art. […]” for “art.”

[4] = human liver microsomes 0.5 mg protein/mL, compound 5 μM, NADPH 1.0 mM, 37° C.

Sequence of JAK1 (h) (P23458 whole entry): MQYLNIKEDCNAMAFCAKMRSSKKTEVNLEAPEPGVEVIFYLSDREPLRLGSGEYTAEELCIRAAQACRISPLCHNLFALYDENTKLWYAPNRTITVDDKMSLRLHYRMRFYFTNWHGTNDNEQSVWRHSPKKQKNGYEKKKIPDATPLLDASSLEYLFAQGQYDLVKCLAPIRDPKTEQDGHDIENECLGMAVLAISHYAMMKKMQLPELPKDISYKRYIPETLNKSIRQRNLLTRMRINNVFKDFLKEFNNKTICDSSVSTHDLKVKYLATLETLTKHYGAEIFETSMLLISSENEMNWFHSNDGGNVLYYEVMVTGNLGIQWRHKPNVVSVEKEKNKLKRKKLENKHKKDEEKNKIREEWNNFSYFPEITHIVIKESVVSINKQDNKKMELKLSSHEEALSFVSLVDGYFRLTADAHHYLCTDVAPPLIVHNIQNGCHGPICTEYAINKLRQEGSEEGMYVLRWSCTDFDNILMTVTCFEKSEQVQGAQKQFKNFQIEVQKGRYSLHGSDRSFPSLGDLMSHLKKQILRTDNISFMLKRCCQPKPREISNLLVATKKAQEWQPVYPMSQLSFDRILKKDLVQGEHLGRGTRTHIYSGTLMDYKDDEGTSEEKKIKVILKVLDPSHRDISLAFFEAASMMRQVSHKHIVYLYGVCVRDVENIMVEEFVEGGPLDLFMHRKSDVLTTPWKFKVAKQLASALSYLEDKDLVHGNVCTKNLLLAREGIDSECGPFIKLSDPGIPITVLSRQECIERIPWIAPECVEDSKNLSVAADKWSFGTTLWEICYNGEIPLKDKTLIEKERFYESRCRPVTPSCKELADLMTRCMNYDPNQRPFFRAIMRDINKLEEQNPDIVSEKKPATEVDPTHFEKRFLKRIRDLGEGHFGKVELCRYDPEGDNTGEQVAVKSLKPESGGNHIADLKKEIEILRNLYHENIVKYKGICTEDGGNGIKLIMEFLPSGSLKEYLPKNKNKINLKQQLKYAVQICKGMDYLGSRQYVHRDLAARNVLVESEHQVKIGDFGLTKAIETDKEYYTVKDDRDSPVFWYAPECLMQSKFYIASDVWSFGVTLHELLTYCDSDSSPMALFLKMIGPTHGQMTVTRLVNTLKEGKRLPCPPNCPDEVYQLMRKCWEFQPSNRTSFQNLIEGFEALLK
Sequence of Aurora-B (h) (Q96GD4 whole entry): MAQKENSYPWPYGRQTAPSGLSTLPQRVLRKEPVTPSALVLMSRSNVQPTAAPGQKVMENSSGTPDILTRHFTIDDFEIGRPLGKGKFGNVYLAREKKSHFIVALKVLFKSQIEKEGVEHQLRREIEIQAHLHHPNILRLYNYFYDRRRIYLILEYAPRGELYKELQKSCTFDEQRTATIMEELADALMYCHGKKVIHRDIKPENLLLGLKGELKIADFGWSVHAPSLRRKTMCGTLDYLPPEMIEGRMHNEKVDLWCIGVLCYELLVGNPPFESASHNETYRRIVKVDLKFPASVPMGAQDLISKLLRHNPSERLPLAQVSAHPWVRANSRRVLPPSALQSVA
Sequence of Aurora-A (h) (O14965 whole entry): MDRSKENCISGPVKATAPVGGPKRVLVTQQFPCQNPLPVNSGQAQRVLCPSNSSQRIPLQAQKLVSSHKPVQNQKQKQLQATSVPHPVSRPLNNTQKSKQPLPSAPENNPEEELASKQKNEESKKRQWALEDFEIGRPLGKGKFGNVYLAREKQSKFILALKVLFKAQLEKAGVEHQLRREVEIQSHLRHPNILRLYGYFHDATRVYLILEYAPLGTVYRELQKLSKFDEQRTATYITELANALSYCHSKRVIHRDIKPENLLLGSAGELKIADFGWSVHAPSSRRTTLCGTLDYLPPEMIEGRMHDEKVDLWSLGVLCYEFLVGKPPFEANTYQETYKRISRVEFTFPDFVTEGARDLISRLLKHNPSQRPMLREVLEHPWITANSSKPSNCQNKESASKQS
Sequence of FLT3 (h) (P36888 27-993): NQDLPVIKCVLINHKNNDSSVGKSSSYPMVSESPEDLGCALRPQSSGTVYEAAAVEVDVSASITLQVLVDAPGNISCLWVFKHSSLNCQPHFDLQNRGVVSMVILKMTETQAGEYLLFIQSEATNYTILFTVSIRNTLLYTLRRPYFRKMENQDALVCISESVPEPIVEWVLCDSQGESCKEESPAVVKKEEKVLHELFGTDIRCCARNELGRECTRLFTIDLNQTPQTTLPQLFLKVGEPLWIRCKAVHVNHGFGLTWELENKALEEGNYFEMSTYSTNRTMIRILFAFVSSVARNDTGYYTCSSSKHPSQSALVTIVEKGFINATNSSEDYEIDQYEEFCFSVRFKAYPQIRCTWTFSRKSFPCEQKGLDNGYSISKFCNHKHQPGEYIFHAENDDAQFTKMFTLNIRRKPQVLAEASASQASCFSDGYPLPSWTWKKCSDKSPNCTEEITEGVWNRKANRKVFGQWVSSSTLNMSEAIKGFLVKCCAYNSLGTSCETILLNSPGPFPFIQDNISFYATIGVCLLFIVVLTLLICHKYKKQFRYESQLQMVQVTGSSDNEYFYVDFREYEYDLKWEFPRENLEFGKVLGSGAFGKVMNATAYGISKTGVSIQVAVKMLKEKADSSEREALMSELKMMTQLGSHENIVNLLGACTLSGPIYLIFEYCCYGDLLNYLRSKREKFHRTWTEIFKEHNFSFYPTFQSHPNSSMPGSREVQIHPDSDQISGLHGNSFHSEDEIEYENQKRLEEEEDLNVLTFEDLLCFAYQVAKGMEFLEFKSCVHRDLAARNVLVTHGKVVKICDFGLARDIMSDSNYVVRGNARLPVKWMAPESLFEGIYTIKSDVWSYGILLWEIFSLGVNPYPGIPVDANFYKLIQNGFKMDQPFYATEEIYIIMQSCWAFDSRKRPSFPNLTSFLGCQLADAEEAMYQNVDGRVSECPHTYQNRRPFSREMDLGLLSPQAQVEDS
Sequence of JAK2 (h) (O60674 whole entry): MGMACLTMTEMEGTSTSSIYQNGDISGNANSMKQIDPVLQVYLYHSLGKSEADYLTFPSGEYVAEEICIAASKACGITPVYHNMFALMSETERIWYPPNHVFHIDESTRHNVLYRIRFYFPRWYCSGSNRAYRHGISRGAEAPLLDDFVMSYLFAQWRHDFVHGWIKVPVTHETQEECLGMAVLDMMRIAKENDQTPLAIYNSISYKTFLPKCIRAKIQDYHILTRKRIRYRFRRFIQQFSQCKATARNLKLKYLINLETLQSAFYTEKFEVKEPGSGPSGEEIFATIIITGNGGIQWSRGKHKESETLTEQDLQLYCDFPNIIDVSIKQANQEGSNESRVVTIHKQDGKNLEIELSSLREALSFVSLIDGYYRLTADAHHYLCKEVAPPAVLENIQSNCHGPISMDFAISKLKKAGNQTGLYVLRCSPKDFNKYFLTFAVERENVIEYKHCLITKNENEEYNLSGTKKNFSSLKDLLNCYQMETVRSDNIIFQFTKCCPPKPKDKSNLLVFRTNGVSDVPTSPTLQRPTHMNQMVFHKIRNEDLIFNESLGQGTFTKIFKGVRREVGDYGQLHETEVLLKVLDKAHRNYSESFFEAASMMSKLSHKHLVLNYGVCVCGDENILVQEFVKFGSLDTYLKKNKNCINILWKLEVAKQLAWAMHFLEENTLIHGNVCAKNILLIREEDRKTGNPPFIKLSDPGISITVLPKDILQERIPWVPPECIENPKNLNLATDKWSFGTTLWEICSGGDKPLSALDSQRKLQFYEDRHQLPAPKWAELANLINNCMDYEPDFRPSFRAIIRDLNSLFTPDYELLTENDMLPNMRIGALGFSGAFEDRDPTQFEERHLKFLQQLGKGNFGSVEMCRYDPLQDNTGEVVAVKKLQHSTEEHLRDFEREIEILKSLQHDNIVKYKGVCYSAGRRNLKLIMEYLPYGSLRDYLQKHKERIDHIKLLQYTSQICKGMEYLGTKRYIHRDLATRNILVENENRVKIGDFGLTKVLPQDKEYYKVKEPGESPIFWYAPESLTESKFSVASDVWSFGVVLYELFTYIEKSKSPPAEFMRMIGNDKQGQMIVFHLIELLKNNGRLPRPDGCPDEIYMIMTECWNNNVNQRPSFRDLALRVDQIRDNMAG

| Structure (SMILES) | IC50 (Aurora-A (h)) [nM] | IC50 (JAK1 (h)) [nM] | half-life at 5 μM [1] [h] | CLint scaled at 5 μM [1] [mL/min/kg] | Cl/F [2] [mL/min/kg] | AUC(0-t) [2] [ng·h/mL] | half-life [2] [h] | Vd [2] [L/kg] | half-life at 5 μM [3, 4] [h] | CLint scaled at 5 μM [3] [mL/min/kg] | IC50 (Aurora-B (h)) [nM] | IC50 (FLT3 (h)) [nM] | IC50 (JAK2 (h)) [nM] | Human T1/2 [3, 4] |
| --- | --- | --- | --- | --- | --- | --- | --- | --- | --- | --- | --- | --- | --- | --- |
| Cn1cc(Nc2ncc(Cl)c(NC3COC4C(N)COC34)n2)cn1 (stereo not drawn) [Ex. 7, N^4-(6-aminohexahydrofuro[3,2-b]furan-3-yl)-5-chloro-N^2-(1-methyl-1H-pyrazol-4-yl)pyrimidine-2,4-diamine] | 99 | – | – | – | – | – | – | – | – | – | – | – | – | – |
| Cc1cnc(Nc2cnn(C)c2)nc1NC1COC2C(O)COC12 (stereo not drawn) [Ex. 3, 6-((5-methyl-2-((1-methyl-1H-pyrazol-4-yl)amino)pyrimidin-4-yl)amino) hexahydrofuro[3,2-b]furan-3-ol] | – | 78 | – | – | – | – | – | – | – | – | – | – | – | – |
| COC1COC2C(Nc3nc(Nc4cnn(C)c4)ncc3Cl)COC12 (stereo not drawn) [Ex. 6, 5-chloro-N^4-(6-methoxyhexahydrofuro[3,2-b]furan-3-yl)-N^2-(1-methyl-1H-pyrazol-4-yl)pyrimidine-2,4-diamine] | – | – | 1.48 | 28 | 20.8 | 822 | 0.83 | 1.39 | 1.52 | 19 | – | – | – | – |
| Cn1cc(Nc2ncc(Cl)c(NC3COC4C(NS(C)(=O)=O)COC34)n2)cn1 (stereo not drawn) [Ex. 8, N-(6-((5-chloro-2-((1-methyl-1H-pyrazol-4-yl)amino)pyrimidin-4-yl)amino)hexahydrofuro[3,2-b]furan-3-yl)methanesulfonamide] | 51 | 31 | 1.64 | 25.2 | 63.7 | 259 | 0.34 | 1.39 | 6.28 | 4.61 | 31 | 11 | – | – |
| CN(c1nc(Nc2cnn(C)c2)ncc1Cl)C1COC2C(O)COC21 (stereo not drawn) [Ex. 1, 6-((5-chloro-2-((l-methyl-1H-pyrazol-4-yl)amino)pyrimidin-4-yl)(methyl)amino)hexahydrofuro[3,2-b]furan-3-ol] | – | 261 | 20.6 | 2.01 | 18.2 | 929 | 1.2 | 1.22 | 32.8 | 0.88 | – | – | 689 | – |
| Cn1cc(Nc2ncc(Cl)c(NC3COC4C(OCCO)COC34)n2)cn1 (stereo not drawn) [Ex. 5, 2-((6-((5-chloro-2-((l-methyl-1H-pyrazol-4-yl)amino)pyrimidin-4-yl)amino)hexahydrofuro[3,2-b]furan-3-yl)oxy)ethanol] | – | 61 | 12.1 | 3.42 | 25 | 621 | 2.93 | 3.02 | – | – | 50 | 57 | – | ∞ |
